From US10517842B2, “Methods of modulating miRNA levels and compositions for use in the same” (Los Angeles Biomedical Research Institute at Harbor-UCLA …, priority 2017, dated 2019)

Experiments:
[1] = tested on: 3′UTR fragment of IL8; assay: 3′UTR luciferase reporter assay in LSMC; assay type: cell-based, human; conditions: Tranilast 200 μM vs DMSO
Protocol: (§1) FIG. 10A: The relative luciferase activity in LSMC treated with Tranilast (200 μM) or DMSO as control for 48 hrs prior to transfection with Renilla and Firefly luciferase reporter plasmids carrying a 3′UTR fragment of COL3A1, CDK2 or IL8 and incubated with Tranilast (200 μM) or DMSO containing medium after transfection for another 48 hrs. The relative luciferase activity is presented as the ratio of Firefly:Renilla as compared to DMSO which was independently set as 1. The results are presented as mean±SEM of at least three sets of independent experiments using LSMC isolated from 3 patients. FIG. 10B: Protein expression of COL3A1 and CDK2 was determined after transfection of anti-miR scrambled oligonucleotides (aNC) or anti-miR-29c oligonucleotides (a29c) in LSMC for 72 hrs with DMSO or Tranilast (200 μM) treatment for the last 48 hrs. GAPDH was used as loading control. The result is one representative of at least three sets of independent experiments using LSMC isolated from 3 patients. FIG. 10C: The bar graph presented the relative band densities as mean±SEM of at least three independent experiments. Inhibition of protein expression by Tranilast treatment was calculated relative to changes in corresponding DMSO controls in cells transfected with aNC or anti-miR-29c.

[2] = tested on: 3′UTR of COL3A1; assay: 3′UTR luciferase reporter assay in LSMC; assay type: cell-based, human; conditions: Tranilast 200 μM vs DMSO set as 1, 48 hrs before and 48 hrs after transfection, LSMC; P<0.05
Protocol: LSMC were seeded at 3.5×10^4 cells/well in 6-well plates and at sub-confluence were treated with Tranilast (200 μM) or DMSO as control for 48 hrs. Tranilast and DMSO-treated cells were then transfected with luciferase reporter plasmids (1 μg/well) containing 3′ UTR sequences for COL3A1 or CDK2 (GeneCopoeia, Inc., Rockville, Md.) using PureFection transfection reagent (System Biosciences, Inc., Palo Alto, Calif.). After 48 hrs of transfection Firefly and Renilla luciferase activities were measured using the Dual-Luciferase Reporter Assay System (Promega). Firefly luciferase activity was normalized to Renilla luciferase activity. The level of induction was reported as mean±SEM of three experiments and compared with a ratio in cells treated with DMSO independently set as 1.
as §1

## COc1ccc(C=CC(=O)Nc2ccccc2C(=O)O)cc1OC [Tranilast, 2-[[3-(3,4-dimethoxyphenyl)-1-oxo-2-propenyl]amino]benzoic acid]
[1]
  expression of IL8 (heading to FIG. 10A, 3′UTR reporter): Down-regulated
[2]
  3′UTR activity of COL3A1 (relative luciferase activity, Firefly:Renilla): suppressed
